Calls of active or inactive are those of the source. No cut-off for these calls is given here.
What was measured:
[1] = biological target: Aurora kinase C (Homo sapiens) (UniProt Q9UQB9); assay: Binding affinity to wild-type human full length AURKC (M1 to S275 residues) expressed in bacterial expression system assessed as residual binding level at 10 uM by Kinomescan method relative to control
[2] = biological target: Cyclin-dependent kinase 11B (Homo sapiens) (UniProt P21127); assay: Binding affinity to wild-type human partial length CDC2L1 (P353 to G692 residues) expressed in bacterial expression system assessed as residual binding level at 10 uM by Kinomescan method relative to control
Cyclin-dependent kinase 11B (Homo sapiens), sequence (P21127 whole entry, the tested form may be a part): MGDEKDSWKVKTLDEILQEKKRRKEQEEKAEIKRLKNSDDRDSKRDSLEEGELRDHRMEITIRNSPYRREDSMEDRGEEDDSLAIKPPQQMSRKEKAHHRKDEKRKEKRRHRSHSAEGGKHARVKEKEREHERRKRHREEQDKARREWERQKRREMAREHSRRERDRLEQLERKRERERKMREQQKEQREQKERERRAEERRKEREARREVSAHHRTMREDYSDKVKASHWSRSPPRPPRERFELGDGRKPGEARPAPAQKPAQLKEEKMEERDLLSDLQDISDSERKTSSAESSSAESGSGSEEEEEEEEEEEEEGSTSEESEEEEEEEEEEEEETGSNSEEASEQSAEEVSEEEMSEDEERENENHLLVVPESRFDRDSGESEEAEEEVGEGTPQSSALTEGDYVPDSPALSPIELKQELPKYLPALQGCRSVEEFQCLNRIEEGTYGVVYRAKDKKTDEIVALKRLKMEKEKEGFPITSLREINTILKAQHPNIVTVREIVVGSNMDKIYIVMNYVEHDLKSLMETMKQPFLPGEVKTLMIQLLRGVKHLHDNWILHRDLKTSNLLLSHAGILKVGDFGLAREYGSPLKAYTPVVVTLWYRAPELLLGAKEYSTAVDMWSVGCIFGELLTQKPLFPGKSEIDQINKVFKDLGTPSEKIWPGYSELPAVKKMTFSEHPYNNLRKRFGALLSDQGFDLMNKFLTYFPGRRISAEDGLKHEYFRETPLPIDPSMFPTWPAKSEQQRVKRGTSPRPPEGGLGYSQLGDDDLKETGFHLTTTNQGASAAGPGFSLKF

[3] = biological target: Cyclin-dependent kinase 11A (Homo sapiens) (UniProt Q9UQ88); assay: Binding affinity to wild-type human partial length CDC2L2 (D391 to K730 residues) expressed in bacterial expression system assessed as residual binding level at 10 uM by Kinomescan method relative to control
[4] = biological target: Cyclin-dependent kinase 2 (Homo sapiens) (UniProt P24941); assay: Binding affinity to wild-type human full length CDK2 (M1 to L298 residues) expressed in bacterial expression system assessed as residual binding level at 10 uM by Kinomescan method relative to control
[5] = biological target: Serine/threonine-protein kinase Chk2 (Homo sapiens) (UniProt O96017); assay: Binding affinity to wild-type human partial length CHEK2 (S253 to E574 residues) expressed in bacterial expression system assessed as residual binding level at 10 uM by Kinomescan method relative to control
Serine/threonine-protein kinase Chk2 (Homo sapiens), sequence (O96017 whole entry, the tested form may be a part): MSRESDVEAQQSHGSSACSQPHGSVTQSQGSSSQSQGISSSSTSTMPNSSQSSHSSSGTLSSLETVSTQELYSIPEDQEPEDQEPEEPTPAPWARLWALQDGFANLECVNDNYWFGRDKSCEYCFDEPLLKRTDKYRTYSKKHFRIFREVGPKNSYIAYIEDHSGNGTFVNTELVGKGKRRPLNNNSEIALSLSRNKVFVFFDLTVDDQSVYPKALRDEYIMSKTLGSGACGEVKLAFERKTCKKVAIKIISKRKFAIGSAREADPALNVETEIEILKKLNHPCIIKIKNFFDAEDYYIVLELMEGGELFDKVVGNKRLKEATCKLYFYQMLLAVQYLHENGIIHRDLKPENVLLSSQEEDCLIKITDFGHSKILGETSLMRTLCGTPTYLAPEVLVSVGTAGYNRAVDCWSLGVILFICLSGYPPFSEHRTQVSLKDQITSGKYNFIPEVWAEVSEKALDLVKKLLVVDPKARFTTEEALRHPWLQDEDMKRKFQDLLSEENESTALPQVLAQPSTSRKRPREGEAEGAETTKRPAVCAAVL

[6] = biological target: Mitogen-activated protein kinase 3 (Homo sapiens) (UniProt P27361); assay: Binding affinity to wild-type human full length ERK1 (M1 to P379 residues) expressed in bacterial expression system assessed as residual binding level at 10 uM by Kinomescan method relative to control
[7] = biological target: Tyrosine-protein kinase Fer (Homo sapiens) (UniProt P16591); assay: Binding affinity to wild-type human partial length FER (S542 to T822 residues) expressed in bacterial expression system assessed as residual binding level at 10 uM by Kinomescan method relative to control
[8] = biological target: Fibroblast growth factor receptor 2 (Homo sapiens) (UniProt P21802); assay: Binding affinity to wild-type human partial length FGFR2 (D457 to E769 residues) expressed in bacterial expression system assessed as residual binding level at 10 uM by Kinomescan method relative to control
Fibroblast growth factor receptor 2 (Homo sapiens), sequence (P21802 22-821 limits assumed): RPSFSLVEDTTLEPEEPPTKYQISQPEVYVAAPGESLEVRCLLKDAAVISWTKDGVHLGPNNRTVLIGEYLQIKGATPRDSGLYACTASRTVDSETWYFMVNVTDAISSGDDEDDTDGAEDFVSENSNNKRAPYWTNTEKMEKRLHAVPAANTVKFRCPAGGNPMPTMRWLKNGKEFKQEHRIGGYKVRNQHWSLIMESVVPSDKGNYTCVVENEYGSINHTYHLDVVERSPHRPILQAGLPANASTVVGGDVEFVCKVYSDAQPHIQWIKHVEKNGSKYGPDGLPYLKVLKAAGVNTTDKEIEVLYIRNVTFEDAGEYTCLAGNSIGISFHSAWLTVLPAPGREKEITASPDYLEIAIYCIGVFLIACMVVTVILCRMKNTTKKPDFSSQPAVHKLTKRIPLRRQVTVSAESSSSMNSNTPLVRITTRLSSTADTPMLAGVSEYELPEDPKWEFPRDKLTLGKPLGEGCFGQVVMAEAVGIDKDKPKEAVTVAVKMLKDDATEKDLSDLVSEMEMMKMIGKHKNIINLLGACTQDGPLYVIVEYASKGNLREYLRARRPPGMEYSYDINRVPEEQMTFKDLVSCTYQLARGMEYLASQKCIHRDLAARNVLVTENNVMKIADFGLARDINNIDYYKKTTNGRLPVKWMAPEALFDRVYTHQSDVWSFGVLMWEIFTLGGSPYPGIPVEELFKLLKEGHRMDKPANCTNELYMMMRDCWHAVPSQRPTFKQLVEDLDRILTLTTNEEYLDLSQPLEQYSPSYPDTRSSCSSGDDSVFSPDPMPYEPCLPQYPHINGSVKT

[9] = tested on: Receptor-type tyrosine-protein kinase FLT3 (Homo sapiens), P36888 [D835H]; assay: Binding affinity to human partial length FLT3 D835H mutant (V592 to Y969 residues) expressed in bacterial expression system assessed as residual binding level at 10 uM by Kinomescan method relative to control
[10] = biological target: Insulin receptor (Homo sapiens) (UniProt P06213); assay: Binding affinity to wild-type human partial length INSR (P997 to E1318 residues) expressed in mammalian expression system assessed as residual binding level at 10 uM by Kinomescan method relative to control
[11] = biological target: Mitogen-activated protein kinase 8 (Homo sapiens) (UniProt P45983); assay: Binding affinity to wild-type human full length JNK1 (M1 to Q384 residues) expressed in mammalian expression system assessed as residual binding level at 10 uM by Kinomescan method relative to control
[12] = tested on: Mast/stem cell growth factor receptor Kit (Homo sapiens), P10721 [UNDEFINED MUTATION]; assay: Binding affinity to human partial length KIT V559D/V654 double mutant (Y545 to D952 residues) expressed in bacterial expression system assessed as residual binding level at 10 uM by Kinomescan method relative to control
Mast/stem cell growth factor receptor Kit (Homo sapiens), P10721 [UNDEFINED MUTATION], sequence (P10721 whole entry, looked up, stated change not applied, the tested form may be a part): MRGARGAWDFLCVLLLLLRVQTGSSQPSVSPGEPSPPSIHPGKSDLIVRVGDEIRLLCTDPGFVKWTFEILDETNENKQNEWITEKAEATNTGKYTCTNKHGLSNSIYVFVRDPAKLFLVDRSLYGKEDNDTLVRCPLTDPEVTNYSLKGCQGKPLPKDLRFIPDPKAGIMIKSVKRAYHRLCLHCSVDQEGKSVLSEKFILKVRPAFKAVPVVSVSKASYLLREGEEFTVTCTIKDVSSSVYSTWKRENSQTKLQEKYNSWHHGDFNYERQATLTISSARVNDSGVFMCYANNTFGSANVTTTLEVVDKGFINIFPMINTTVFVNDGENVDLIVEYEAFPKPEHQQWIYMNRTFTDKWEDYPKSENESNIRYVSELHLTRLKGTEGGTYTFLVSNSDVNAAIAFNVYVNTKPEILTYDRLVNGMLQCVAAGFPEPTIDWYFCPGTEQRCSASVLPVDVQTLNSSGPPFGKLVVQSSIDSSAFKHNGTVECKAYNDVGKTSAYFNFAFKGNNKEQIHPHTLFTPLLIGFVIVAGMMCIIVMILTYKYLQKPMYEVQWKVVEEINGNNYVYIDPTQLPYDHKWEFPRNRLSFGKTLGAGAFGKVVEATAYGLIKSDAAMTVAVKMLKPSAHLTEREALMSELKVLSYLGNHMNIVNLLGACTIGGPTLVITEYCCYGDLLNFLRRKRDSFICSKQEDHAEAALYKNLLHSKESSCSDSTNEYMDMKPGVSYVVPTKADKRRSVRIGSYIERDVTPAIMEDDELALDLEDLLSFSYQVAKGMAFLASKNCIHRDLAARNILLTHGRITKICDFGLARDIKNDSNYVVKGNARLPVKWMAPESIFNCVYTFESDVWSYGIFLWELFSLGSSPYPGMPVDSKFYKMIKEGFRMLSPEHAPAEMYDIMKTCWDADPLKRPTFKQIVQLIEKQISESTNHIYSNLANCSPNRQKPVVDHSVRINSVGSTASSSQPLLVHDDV

[13] = biological target: Dual specificity mitogen-activated protein kinase kinase 2 (Homo sapiens) (UniProt P36507); assay: Binding affinity to wild-type human full length MEK2 (M1 to V400 residues) expressed in mammalian expression system assessed as residual binding level at 10 uM by Kinomescan method relative to control
Dual specificity mitogen-activated protein kinase kinase 2 (Homo sapiens), sequence (P36507 whole entry, the tested form may be a part): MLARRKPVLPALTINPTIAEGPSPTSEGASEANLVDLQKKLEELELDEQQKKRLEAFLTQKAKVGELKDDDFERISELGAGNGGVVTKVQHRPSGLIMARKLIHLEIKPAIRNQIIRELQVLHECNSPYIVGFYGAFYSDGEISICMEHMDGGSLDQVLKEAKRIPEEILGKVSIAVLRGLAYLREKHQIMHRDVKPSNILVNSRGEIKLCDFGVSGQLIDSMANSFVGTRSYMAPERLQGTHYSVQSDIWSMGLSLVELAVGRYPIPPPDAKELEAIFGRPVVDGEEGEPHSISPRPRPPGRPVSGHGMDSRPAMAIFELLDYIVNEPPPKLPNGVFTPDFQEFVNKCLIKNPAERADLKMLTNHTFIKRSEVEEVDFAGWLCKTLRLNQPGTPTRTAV

[14] = biological target: Dual specificity mitogen-activated protein kinase kinase 6 (Homo sapiens) (UniProt P52564); assay: Binding affinity to wild-type human partial length MEK6 (K36 to D334 residues) expressed in bacterial expression system assessed as residual binding level at 10 uM by Kinomescan method relative to control
Dual specificity mitogen-activated protein kinase kinase 6 (Homo sapiens), sequence (P52564 whole entry, the tested form may be a part): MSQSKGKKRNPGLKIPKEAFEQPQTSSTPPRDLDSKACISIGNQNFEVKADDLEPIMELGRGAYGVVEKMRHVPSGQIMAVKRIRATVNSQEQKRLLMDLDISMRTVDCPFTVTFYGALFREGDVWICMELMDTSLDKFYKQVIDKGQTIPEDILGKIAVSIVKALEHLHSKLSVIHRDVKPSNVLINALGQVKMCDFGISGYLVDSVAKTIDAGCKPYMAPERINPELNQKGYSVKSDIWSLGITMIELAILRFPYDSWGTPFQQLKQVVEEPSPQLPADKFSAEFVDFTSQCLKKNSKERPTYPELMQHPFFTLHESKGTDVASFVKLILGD

[15] = biological target: Mitogen-activated protein kinase kinase kinase 10 (Homo sapiens) (UniProt Q02779); assay: Binding affinity to wild-type human partial length MLK2 (V52 to W380 residues) expressed in bacterial expression system assessed as residual binding level at 10 uM by Kinomescan method relative to control
[16] = biological target: Serine/threonine-protein kinase 24 (Homo sapiens) (UniProt Q9Y6E0); assay: Binding affinity to wild-type human partial length MST3 (A30 to S311 residues) expressed in bacterial expression system assessed as residual binding level at 10 uM by Kinomescan method relative to control
[17] = biological target: Cyclin-dependent kinase 15 (Homo sapiens) (UniProt Q96Q40); assay: Binding affinity to wild-type human full length PFTAIRE2 (M1 to W384 residues) expressed in bacterial expression system assessed as residual binding level at 10 uM by Kinomescan method relative to control
Cyclin-dependent kinase 15 (Homo sapiens), sequence (Q96Q40 whole entry, the tested form may be a part): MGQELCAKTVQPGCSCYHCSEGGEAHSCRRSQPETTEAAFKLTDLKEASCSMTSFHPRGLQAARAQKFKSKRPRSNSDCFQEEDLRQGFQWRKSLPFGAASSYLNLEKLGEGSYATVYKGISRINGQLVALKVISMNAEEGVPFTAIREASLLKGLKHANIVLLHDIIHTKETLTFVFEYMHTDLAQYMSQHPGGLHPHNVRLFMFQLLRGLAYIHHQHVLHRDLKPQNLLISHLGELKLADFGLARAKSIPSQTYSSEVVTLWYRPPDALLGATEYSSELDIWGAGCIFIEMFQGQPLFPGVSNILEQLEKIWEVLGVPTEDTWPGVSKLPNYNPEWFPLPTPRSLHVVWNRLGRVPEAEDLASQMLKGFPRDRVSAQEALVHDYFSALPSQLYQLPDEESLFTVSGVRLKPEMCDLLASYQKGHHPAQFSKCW

[18] = biological target: Receptor-interacting serine/threonine-protein kinase 2 (Homo sapiens) (UniProt O43353); assay: Binding affinity to wild-type human partial length RIPK2 (M1 to K310 residues) expressed in bacterial expression system assessed as residual binding level at 10 uM by Kinomescan method relative to control
Receptor-interacting serine/threonine-protein kinase 2 (Homo sapiens), sequence (O43353 whole entry, the tested form may be a part): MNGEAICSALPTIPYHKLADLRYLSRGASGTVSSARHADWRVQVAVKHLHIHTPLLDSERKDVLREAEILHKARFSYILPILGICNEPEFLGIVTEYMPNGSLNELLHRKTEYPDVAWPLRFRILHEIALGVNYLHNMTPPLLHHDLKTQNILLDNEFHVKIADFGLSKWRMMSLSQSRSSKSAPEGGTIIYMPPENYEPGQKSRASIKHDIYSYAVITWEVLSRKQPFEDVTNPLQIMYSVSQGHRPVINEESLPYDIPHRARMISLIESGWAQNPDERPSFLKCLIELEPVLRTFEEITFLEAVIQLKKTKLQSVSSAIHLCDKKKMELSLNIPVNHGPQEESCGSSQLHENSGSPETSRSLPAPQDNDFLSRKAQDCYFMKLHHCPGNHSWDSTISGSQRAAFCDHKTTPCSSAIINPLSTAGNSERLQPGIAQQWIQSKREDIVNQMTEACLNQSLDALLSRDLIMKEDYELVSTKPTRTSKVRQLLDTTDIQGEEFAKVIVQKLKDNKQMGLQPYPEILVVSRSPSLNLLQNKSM

[19] = biological target: Proto-oncogene tyrosine-protein kinase ROS (Homo sapiens) (UniProt P08922); assay: Binding affinity to wild-type human partial length ROS1 (A1921 to N2240 residues) expressed in bacterial expression system assessed as residual binding level at 10 uM by Kinomescan method relative to control
[20] = biological target: Serine/threonine-protein kinase SBK1 (Homo sapiens) (UniProt Q52WX2); assay: Binding affinity to wild-type human partial length SBK1 (P23 to P348 residues) expressed in mammalian expression system assessed as residual binding level at 10 uM by Kinomescan method relative to control
[21] = biological target: STE20-like serine/threonine-protein kinase (Homo sapiens) (UniProt Q9H2G2); assay: Binding affinity to wild-type human partial length SLK (S14 to A307 residues) expressed in bacterial expression system assessed as residual binding level at 10 uM by Kinomescan method relative to control
[22] = biological target: Serine/threonine-protein kinase 32A (Homo sapiens) (UniProt Q8WU08); assay: Binding affinity to wild-type human full length YANK1 (M1 to L396 residues) expressed in mammalian expression system assessed as residual binding level at 10 uM by Kinomescan method relative to control
Jurkat = assay: Cytoprotection against fas ligand/cycloheximide/Z-VAD-fmk-induced necroptosis in human Jurkat cells at 4 to 25 uM measured after 20 hrs by WST-8 assay; format: functional, cell-based
Neutrophil [23] = assay: Inhibition of PMA-induced NETosis in human neutrophils at 25 uM preincubated for 30 mins followed by PMA stimulation and measured after 3 hrs by Hoechst […] staining based fluorescence microscopic analysis; format: functional, cell-based
Neutrophil [24] = assay: Inhibition of PMA-induced NETosis in human neutrophils assessed as inhibition of ROS production at 25 uM pretreated for 25 mins followed by PMA stimulation and measured after 20 mins by DCFH-DA based flow cytometry; format: functional, cell-based

CC(C)N1C(=O)C(NCCCN(C)C)=C(c2cn(C)c3ccccc23)C1=O.Cl
Activity [1]: 92% | Activity [2]: 96% | Activity [3]: 96% | Activity [4]: 92% | Activity [5]: 80% | Activity [6]: 87% | Activity [7]: 97% | Activity [8]: 100% | Activity [9]: 88% | Activity [10]: 100% | Activity [11]: 91% | Activity [12]: 95% | Activity [13]: 94% | Activity [14]: 99% | Activity [15]: 83% | Activity [16]: 100% | Activity [17]: 99% | Activity [18]: 100% | Activity [19]: 87% | Activity [20]: 100% | Activity [21]: 78% | Activity [22]: 67% | Activity (Jurkat): inactive | inhibition (Neutrophil [23]): Active | inhibition (Neutrophil [24]): inactive

From ChEMBL document CHEMBL4304811, “Development of a Water-Soluble Indolylmaleimide Derivative IM-93 Showing Dual Inhibition of Ferroptosis and NETosis” (ACS Med Chem Lett, 2019)
